Measurements reported in patent publication US11434242B2, “Dopamine-b-hydroxylase inhibitors” (BIAL-PORTELA & Cª, S.A., priority 2017, dated 2022).
Marks after values point to notes of the source that are not given here.

Target: T1, Dopamine beta hydroxylase (Homo sapiens, UniProt P09172)
T1 construct: 125 μl of plasma; tissue Instituto Português do Sangue Transplantação; host or cells: human plasma from healthy donors
T1 sequence (P09172 40-617 limits assumed): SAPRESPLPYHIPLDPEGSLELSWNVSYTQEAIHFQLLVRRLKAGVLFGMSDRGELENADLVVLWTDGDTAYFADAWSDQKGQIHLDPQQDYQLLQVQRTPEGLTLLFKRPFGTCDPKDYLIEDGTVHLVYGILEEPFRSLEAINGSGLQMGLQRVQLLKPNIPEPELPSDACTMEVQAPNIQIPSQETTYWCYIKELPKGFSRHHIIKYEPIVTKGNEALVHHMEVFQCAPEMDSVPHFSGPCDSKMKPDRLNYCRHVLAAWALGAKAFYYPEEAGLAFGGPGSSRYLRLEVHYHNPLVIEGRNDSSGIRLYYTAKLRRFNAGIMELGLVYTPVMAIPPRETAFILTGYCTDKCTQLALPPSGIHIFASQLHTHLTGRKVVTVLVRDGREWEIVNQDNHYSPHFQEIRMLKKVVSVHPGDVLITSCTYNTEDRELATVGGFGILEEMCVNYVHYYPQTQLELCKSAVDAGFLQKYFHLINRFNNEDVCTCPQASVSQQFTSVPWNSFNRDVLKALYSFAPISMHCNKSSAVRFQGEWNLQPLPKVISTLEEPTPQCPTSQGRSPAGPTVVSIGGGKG
Experiment: Dopamine beta hydroxylase activity in human plasma
Type: biochemical
Conditions: for Plasma (0.01 μM), activity in % of control / Plasma (0.01 μM), activity in % of control, re-test (asterisked): inhibitor 0.01 μM; for Plasma (0.1 μM), activity in % of control / Plasma (0.1 μM), activity in % of control, re-test (asterisked): inhibitor 0.1 μM; for Plasma (1 μM), activity in % of control: inhibitor 1 μM; for Plasma (0.01 μM), activity in % of control, re-test (asterisked) / Plasma (0.1 μM), activity in % of control, re-test (asterisked): re-tested under the same experimental conditions, asterisked data believed to be correct
How it was run: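 Healthy-donor human plasma pre-incubated 10 min at 37° C with compound at final 10, 100 or 1000 nM in pH 5.0 acetate buffer with ascorbate, fumarate, pargyline, N-ethylmaleimide, catalase and copper sulfate. Tyramine substrate then added for 45 min; octopamine formed was isolated by SCX cartridge, periodate-converted and read at 330 nm; activity given as % control.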

Plasma (0.01 μM), activity in % of control	Plasma (0.1 μM), activity in % of control	Plasma (1 μM), activity in % of control	Plasma (0.01 μM), activity in % of control, re-test (asterisked)	Plasma (0.1 μM), activity in % of control, re-test (asterisked)	Compound
92.9 % of control	43.7 % of control	–	–	–	Cn1c(CC(=O)NCC2CCCO2)c2n(c1=S)C[C@@H](c1c(F)c(F)cc(F)c1F)C2 (stereo in doubt) [Example 387, 2-((R)-2-methyl-6-(2,3,5,6-tetrafluorophenyl)-3-thioxo-2,5,6,7-tetrahydro-3H-pyrrolo[1,2-c]imidazol-1-yl)-N—(((S)-tetrahydrofuran-2-yl)methyl)acetamide]
–	70.3 % of control	8.1 % of control	–	–	O=C(Cc1[nH]c(=S)n2c1C[C@@H](c1cc(Br)ccc1F)C2)NC1CCCC1 [Example 74, (S)-2-(6-(5-bromo-2-fluorophenyl)-3-thioxo-2,5,6,7-tetrahydro-3H-pyrrolo[1,2-c]imidazol-1-yl)-N-cyclopentylacetamide]
–	68.9 % of control	14.0 % of control	–	–	CCOC(=O)Cc1[nH]c(=S)n2c1C[C@H](c1c(F)ccc(Br)c1F)C2 [Example 60, Ethyl (R)-2-(6-(3-bromo-2,6-difluorophenyl)-3-thioxo-2,5,6,7-tetrahydro-3H-pyrrolo[1,2-c]imidazol-1-yl)acetate]
102.2 % of control	68.6 % of control	–	–	–	Cl.Fc1ccc(Cl)c(F)c1[C@@H]1Cc2c(CCN3CCOCC3)[nH]c(=S)n2C1 [Example 196, (S)-6-(3-chloro-2,6-difluorophenyl)-1-(2-morpholinoethyl)-2,5,6,7-tetrahydro-3H-pyrrolo[1,2-c]imidazole-3-thione Hydrochloride]
–	88.4 % of control	47.2 % of control	–	–	CCOC(=O)Cc1[nH]c(=S)n2c1C[C@H](c1cc(Cl)ccc1F)C2 [Example 64, Ethyl (R)-2-(6-(5-chloro-2-fluorophenyl)-3-thioxo-2,5,6,7-tetrahydro-3H-pyrrolo[1,2-c]imidazol-1-yl)acetate]
93.3 % of control	65.3 % of control	–	–	–	CN(C(=O)Cc1c2n(c(=S)n1C)C[C@@H](c1c(F)cccc1F)C2)C1COC1 [Example 448, (R)-2-(6-(2,6-difluorophenyl)-2-methyl-3-thioxo-2,5,6,7-tetrahydro-3H-pyrrolo[1,2-c]imidazol-1-yl)-N-methyl-N-(oxetan-3-yl)acetamide]
64.9 % of control	2.0 % of control	–	–	–	O=C(Cc1[nH]c(=S)n2c1[C@@H]1C[C@]1(c1cc(Br)ccc1F)C2)Nc1ccccn1 [Example 170, 2-((5aS,6aR)-5a-(5-bromo-2-fluorophenyl)-3-thioxo-2,3,5,5a,6,6a-hexahydrocyclopropa[3,4]pyrrolo[1,2-c]imidazol-1-yl)-N-(pyridin-2-yl)acetamide]
–	64.5 % of control	12.6 % of control	–	–	CCOC(=O)Cc1[nH]c(=S)n2c1C[C@H](c1c(F)cccc1F)C2 [Example 65, Ethyl (R)-2-(6-(2,6-difluorophenyl)-3-thioxo-2,5,6,7-tetrahydro-3H-pyrrolo[1,2-c]imidazol-1-yl)acetate]
92.5 % of control	61.0 % of control	–	–	–	Cn1c(CC(=O)N2CCOCC2)c2n(c1=S)C[C@H](c1cc(F)cc(F)c1)C2 [Example 419, (S)-2-(6-(3,5-difluorophenyl)-2-methyl-3-thioxo-2,5,6,7-tetrahydro-3H-pyrrolo[1,2-c]imidazol-1-yl)-1-morpholinoethan-1-one]
38.0 % of control	4.4 % of control	–	87.3* % of control	37.6* % of control	Cn1c(CC(=O)N[C@@H]2CCOC2)c2n(c1=S)C[C@@H](c1c(F)c(F)cc(F)c1F)C2 [Example 243]
62.3 % of control	43.4 % of control	–	–	–	Cl.Cn1c(CCNC2CCCC2)c2n(c1=S)C[C@@]1(c3cc(Cl)ccc3F)C[C@@H]21 [Example 322, (5aS,6aR)-5a-(5-chloro-2-fluorophenyl)-1-(2-(cyclopentylamino)ethyl)-2-methyl-5,5a,6,6a-tetrahydrocyclopropa[3,4]pyrrolo[1,2-c]imidazole-3(2H)-thione Hydrochloride]
97.0 % of control	54.7 % of control	–	–	–	CN(C(=O)Cc1[nH]c(=S)n2c1C[C@H](c1c(F)ccc(F)c1F)C2)C1CCOC1 (stereo partly drawn) [Example 364, N-methyl-N-(tetrahydrofuran-3-yl)-2-((R)-3-thioxo-6-(2,3,6-trifluorophenyl)-2,5,6,7-tetrahydro-3H-pyrrolo[1,2-c]imidazol-1-yl)acetamide]
83.8 % of control	66.8 % of control	–	59.3* % of control	9.7* % of control	Cn1c(CC(=O)N2CCOCC2)c2n(c1=S)C[C@H](c1c(F)ccc(Br)c1F)C2 [Example 233, (S)-2-(6-(3-bromo-2,6-difluorophenyl)-2-methyl-3-thioxo-2,5,6,7-tetrahydro-3H-pyrrolo[1,2-c]imidazol-1-yl)-1-morpholinoethan-1-one]
48.0 % of control	0 % of control	–	–	–	Cl.O=C(Cc1[nH]c(=S)n2c1C[C@@H](c1c(F)ccc(Cl)c1F)C2)NCCN1CCC(F)(F)CC1 [Example 115, (S)-2-(6-(3-chloro-2,6-difluorophenyl)-3-thioxo-2,5,6,7-tetrahydro-3H-pyrrolo[1,2-c]imidazol-1-yl)-N-(2-(4,4-difluoropiperidin-1-yl)ethyl)acetamide Hydrochloride]
62.7 % of control	18.0 % of control	–	–	–	Cl.Fc1ccc(Br)cc1[C@]12C[C@H]1c1c(CCNCC3CC3)[nH]c(=S)n1C2 [Example 186, (5aS,6aR)-5a-(5-bromo-2-fluorophenyl)-1-(2-((cyclopropylmethyl)amino)ethyl)-5,5a,6,6a-tetrahydrocyclopropa[3,4]pyrrolo[1,2-c]imidazole-3(2H)-thione hydrochloride]
33.4 % of control	4.5 % of control	–	–	–	[2H]C([2H])([2H])n1c(CC(=O)N[C@@H]2CCCOC2)c2n(c1=S)C[C@@]1(c3cc(Br)ccc3F)C[C@@H]21 [Example 464, 2-((5aS,6aR)-5a-(5-bromo-2-fluorophenyl)-2-(methyl-d)-3-thioxo-2,3,5,5a,6,6a-hexahydrocyclopropa[3,4]pyrrolo[1,2-c]imidazol-1-yl)-N—((R)-tetrahydro-2H-pyran-3-yl)acetamide]
92.5 % of control	79.3 % of control	–	–	–	Cn1c(CCN2CCCC2)c2n(c1=S)C[C@@H](c1c(F)ccc(F)c1F)C2 [Example 474, (R)-2-methyl-1-(2-(pyrrolidin-1-yl)ethyl)-6-(2,3,6-trifluorophenyl)-2,5,6,7-tetrahydro-3H-pyrrolo[1,2-c]imidazole-3-thione hydrofluoride]
